Experimental data taken from PubChem BioAssay (NCI).
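Five compound concentrations were applied to cells in 96-well plates for 48 hours; endpoints were derived by simple linear interpolation of the resulting dose-response curve. At the TGI there is no net growth.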

Assays:
Assay in all cases: NCI-60 cell line screen, 48 h
MCF7 breast = tested on: MCF7 breast
MDA-MB-231 breast = tested on: MDA-MB-231 breast
HT29 colon = tested on: HT29 colon
MOLT-4 leukemia = tested on: MOLT-4 leukemia
SR leukemia = tested on: SR leukemia
HCT-116 colon = tested on: HCT-116 colon
LOX IMVI melanoma = tested on: LOX IMVI melanoma
NCI/ADR-RES ovarian = tested on: NCI/ADR-RES ovarian
RPMI-8226 leukemia = tested on: RPMI-8226 leukemia
SF-539 CNS = tested on: SF-539 CNS
SF-268 CNS = tested on: SF-268 CNS

Row | Structure (SMILES) | TGI (MCF7 breast) | TGI (MDA-MB-231 breast) | TGI (HT29 colon) | TGI (MOLT-4 leukemia) | TGI (SR leukemia) | TGI (HCT-116 colon) | TGI (LOX IMVI melanoma) | TGI (NCI/ADR-RES ovarian) | TGI (RPMI-8226 leukemia) | TGI (SF-539 CNS) | TGI (SF-268 CNS)
1 | CC(C)(C)c1cc2c(O)c(c1)Cc1cc(C(C#N)(Cc3ccc4ccccc4c3)Cc3ccc4ccccc4c3)cc(c1O)Cc1cc(C(C)(C)C)cc(c1O)Cc1cc(C(C#N)(Cc3ccc4ccccc4c3)Cc3ccc4ccccc4c3)cc(c1O)C2 | > 100 µM | > 100 µM | > 100 µM | > 100 µM | > 100 µM | > 100 µM | > 100 µM | > 100 µM | > 100 µM | > 100 µM | > 100 µM
2 | Nc1ncc(Cl)c(NCC2(CO)CC(CCc3ccccc3)C2)n1 (stereo unspecified) | > 100 µM | > 100 µM | > 100 µM | > 100 µM | > 100 µM | > 100 µM | > 100 µM | > 100 µM | > 100 µM | > 100 µM | > 100 µM
3 | Cc1ccc2c(c1)C(=O)N1CCC[C@H]1C=N2 | > 76.5 µM | > 66.5 µM | > 55.6 µM | > 84.1 µM | > 92.1 µM | > 100 µM | > 100 µM | > 64 µM | > 53.3 µM | 37.3 µM | > 100 µM
4 | O=C(NNC(c1ccccc1)C(F)(F)F)c1ccncc1 (stereo unspecified) | > 100 µM | > 100 µM | > 100 µM | > 100 µM | > 100 µM | > 100 µM | > 100 µM | > 100 µM | > 100 µM | > 100 µM | > 100 µM
5 | COc1cc(C(=O)O[C@@H]2[C@@H](OC(=O)c3cc(OC)c(OC)c(OC)c3)[C@@H](OC)O[C@@H]3CO[C@@H](c4ccccc4)O[C@@H]23)cc(OC)c1OC | > 100 µM | > 100 µM | > 100 µM | > 100 µM | > 100 µM | > 100 µM | > 100 µM | > 100 µM | > 100 µM | > 100 µM | > 100 µM
6 | CN(C)Cc1cc(C(C)(C)C)ccc1-c1ccc(C(C)(C)C)cc1CN(C)C | > 100 µM | > 100 µM | > 100 µM | > 100 µM | > 100 µM | > 100 µM | > 100 µM | > 100 µM | > 100 µM | > 100 µM | > 100 µM
7 | Cc1cc(N=Nc2c(O)ccc3ccccc23)ccc1N=Nc1cccc([N+](C)(C)C)c1 | > 53.1 µM | 55.3 µM | 25.1 µM | > 100 µM | > 100 µM | 75.5 µM | > 40.3 µM | > 100 µM | > 46.5 µM | 22.3 µM | 57.1 µM
8 | C/C1=C/C(C)CC(C)OC(=O)C(C)NC(=O)C(Cc2ccc(O)c(I)c2)N(C)C(=O)C(C)NC(=O)C(C)C1 (stereo unspecified) | > 100 µM | 0.963 µM | > 40.7 µM | 23.7 µM | 5.8 µM | > 48.7 µM | < 0.01 µM | 24.4 µM | 10.1 µM | 1.61 µM | 0.347 µM
9 | CCN(CC)CCNC(=O)c1ccc(I)cc1 | > 100 µM | > 100 µM | > 100 µM | > 100 µM | > 100 µM | > 100 µM | > 100 µM | > 100 µM | > 100 µM | > 100 µM | > 100 µM
10 | O=C(N/N=C/c1ccc([N+](=O)[O-])o1)c1ccc(C(=O)N/N=C/c2ccc([N+](=O)[O-])o2)cc1 | 48.9 µM | > 100 µM | > 100 µM | > 100 µM | > 100 µM | > 100 µM | 94.9 µM | > 100 µM | 26.1 µM | 38.3 µM | > 100 µM
11 | NC(=O)NC(=O)c1cccc(CNc2ccc(C(=O)N[C@@H](CCC(=O)O)C(=O)O)cc2)n1 | > 100 µM | > 100 µM | > 100 µM | > 100 µM | > 100 µM | > 100 µM | > 100 µM | > 100 µM | > 100 µM | > 100 µM | > 100 µM
12 | COC(=O)C1c2c(c3ccccc3n2C(=O)OC)CCN2CCC1C(S(=O)(=O)c1ccccc1)C2=O (stereo unspecified) | > 100 µM | > 100 µM | > 100 µM | > 100 µM | > 100 µM | > 100 µM | > 100 µM | > 100 µM | > 100 µM | > 100 µM | > 100 µM
13 | Cn1c(-c2cccs2)cc(-c2cccs2)c1-c1ccco1 | 5.41 µM | > 100 µM | > 100 µM | > 100 µM | > 100 µM | > 100 µM | 62.9 µM | > 100 µM | > 100 µM | > 100 µM | > 100 µM
14 | CN(C)CC1COC2Cc3ccccc3C1O2 (stereo unspecified) | > 100 µM | > 100 µM | > 100 µM | > 100 µM | > 100 µM | > 100 µM | > 100 µM | > 100 µM | > 100 µM | > 100 µM | > 100 µM
15 | OC[C@]1(n2nc3ccccc3n2)OC[C@@H]1c1ccccc1 | > 100 µM | > 100 µM | > 100 µM | > 100 µM | > 100 µM | > 100 µM | > 100 µM | > 100 µM | 97.4 µM | 69.2 µM | > 100 µM
16 | CC(C)OP(=O)(OC(C)C)/C(C#N)=C/c1ccco1 | > 100 µM | > 100 µM | > 100 µM | > 100 µM | > 100 µM | > 100 µM | > 100 µM | > 100 µM | > 100 µM | > 100 µM | > 100 µM
17 | Cc1nn(C(=O)c2ccncc2)c2c1C(c1ccccc1)SC(N)=N2 (stereo unspecified) | > 10 µM | > 10 µM | > 10 µM | > 10 µM | > 10 µM | > 10 µM | > 10 µM | > 10 µM | > 10 µM | > 10 µM | > 10 µM
18 | Cc1ccc2c(n1)C(=O)C=CC2=O | 53.8 µM | 19.5 µM | 38 µM | > 24 µM | > 100 µM | 4.12 µM | 12.6 µM | 48.6 µM | 11 µM | 35.3 µM | 42.7 µM
19 | COc1ccc2c(c1)/C(=C\c1c(C)nc3sc(C)cn13)C(=O)N2 | > 100 µM | 73.6 µM | 7.83 µM | > 83.8 µM | > 75.6 µM | 25 µM | 61.2 µM | > 42.6 µM | > 64.8 µM | 9.58 µM | 53.7 µM
20 | Cc1cc(S(=O)(=O)/N=C(\[N-]S(=O)(=O)c2ccc(Cl)cc2)[n+]2ccc(N(C)C)cc2)c(S)cc1Cl | > 100 µM | > 100 µM | > 100 µM | 96.5 µM | 3.13 µM | 44.7 µM | > 100 µM | > 100 µM | > 100 µM | > 100 µM | > 100 µM
21 | COc1cc(C=C2C(C)=NN(c3cccc(Cl)c3)C23C(Cl)C(=O)N3c2nc3ccccc3s2)ccc1O (stereo unspecified) | > 100 µM | 26.7 µM | 26.7 µM | 21.1 µM | 17.2 µM | 45 µM | 40.2 µM | > 100 µM | 30.5 µM | > 100 µM | 16 µM
